# Reference: PubChem BioAssay (NCI)
#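 In this assay, cells in 96-well plates receive the compound at five concentrations for 48 hours. Endpoints are linearly interpolated between the surrounding concentrations. TGI denotes the concentration required for complete inhibition of growth.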
# How the values were obtained:
# Experiment in all cases: NCI tumour cell line growth inhibition, 48 h
# SR leukemia = tested on: SR leukemia
# MDA-MB-435 = tested on: MDA-MB-435
# OVCAR-4 ovarian = tested on: OVCAR-4 ovarian
# OVCAR-3 ovarian = tested on: OVCAR-3 ovarian
# 786-0 renal = tested on: 786-0 renal
# MOLT-4 leukemia = tested on: MOLT-4 leukemia
# SW-620 colon = tested on: SW-620 colon
# HOP-62 NSCLC = tested on: HOP-62 NSCLC
# SF-539 CNS = tested on: SF-539 CNS
# SK-OV-3 ovarian = tested on: SK-OV-3 ovarian
# HCT-15 colon = tested on: HCT-15 colon
# HT29 colon = tested on: HT29 colon
# KM12 colon = tested on: KM12 colon
# LOX IMVI melanoma = tested on: LOX IMVI melanoma
# UO-31 renal = tested on: UO-31 renal
# SK-MEL-2 melanoma = tested on: SK-MEL-2 melanoma
# SK-MEL-28 melanoma = tested on: SK-MEL-28 melanoma
# PC-3 prostate = tested on: PC-3 prostate
# OVCAR-5 ovarian = tested on: OVCAR-5 ovarian
# BT-549 breast = tested on: BT-549 breast
# DU-145 prostate = tested on: DU-145 prostate
# CCRF-CEM leukemia = tested on: CCRF-CEM leukemia
# A549 NSCLC = tested on: A549 NSCLC
# NCI-H23 lung = tested on: NCI-H23 lung
# SF-295 CNS = tested on: SF-295 CNS
# SN12C renal = tested on: SN12C renal
# SNB-19 CNS = tested on: SNB-19 CNS
# UACC-62 melanoma = tested on: UACC-62 melanoma
# SK-MEL-5 melanoma = tested on: SK-MEL-5 melanoma
# MDA-N = tested on: MDA-N
# HOP-92 NSCLC = tested on: HOP-92 NSCLC
# COLO 205 colon = tested on: COLO 205 colon
# CAKI-1 renal = tested on: CAKI-1 renal
# A498 renal = tested on: A498 renal
# M14 melanoma = tested on: M14 melanoma
# HL-60(TB) leukemia = tested on: HL-60(TB) leukemia
# NCI-H460 lung = tested on: NCI-H460 lung
# TK-10 renal = tested on: TK-10 renal
# IGROV1 ovarian = tested on: IGROV1 ovarian
# UACC-257 melanoma = tested on: UACC-257 melanoma
# RPMI-8226 leukemia = tested on: RPMI-8226 leukemia
# HCT-116 colon = tested on: HCT-116 colon
# T-47D breast = tested on: T-47D breast
# MALME-3M melanoma = tested on: MALME-3M melanoma
# K-562 leukemia = tested on: K-562 leukemia
# NCI-H226 lung = tested on: NCI-H226 lung
# ACHN renal = tested on: ACHN renal
# U251 CNS = tested on: U251 CNS
# EKVX NSCLC = tested on: EKVX NSCLC
# MDA-MB-231 breast = tested on: MDA-MB-231 breast
# SNB-75 CNS = tested on: SNB-75 CNS
# OVCAR-8 ovarian = tested on: OVCAR-8 ovarian
# HCC-2998 colon = tested on: HCC-2998 colon
# HS 578T breast = tested on: HS 578T breast
# NCI-H522 lung = tested on: NCI-H522 lung
# MCF7 breast = tested on: MCF7 breast
# NCI/ADR-RES ovarian = tested on: NCI/ADR-RES ovarian
# SF-268 CNS = tested on: SF-268 CNS
# RXF 393 renal = tested on: RXF 393 renal
smiles,measurement,setting,value
O=S1OC[C@H](CCCl)O1 (stereo partly drawn),TGI,SR leukemia,> 100 µM
same,TGI,MDA-MB-435,> 100 µM
same,TGI,OVCAR-4 ovarian,> 100 µM
same,TGI,OVCAR-3 ovarian,> 100 µM
same,TGI,786-0 renal,> 100 µM
same,TGI,MOLT-4 leukemia,> 100 µM
same,TGI,SW-620 colon,> 100 µM
same,TGI,HOP-62 NSCLC,> 100 µM
same,TGI,SF-539 CNS,> 100 µM
same,TGI,SK-OV-3 ovarian,> 100 µM
same,TGI,HCT-15 colon,> 100 µM
same,TGI,HT29 colon,> 100 µM
same,TGI,KM12 colon,> 100 µM
same,TGI,LOX IMVI melanoma,> 100 µM
same,TGI,UO-31 renal,> 100 µM
same,TGI,SK-MEL-2 melanoma,> 100 µM
same,TGI,SK-MEL-28 melanoma,> 100 µM
same,TGI,PC-3 prostate,> 100 µM
same,TGI,OVCAR-5 ovarian,> 100 µM
same,TGI,BT-549 breast,> 100 µM
same,TGI,DU-145 prostate,> 100 µM
same,TGI,CCRF-CEM leukemia,> 100 µM
same,TGI,A549 NSCLC,> 100 µM
same,TGI,NCI-H23 lung,> 100 µM
same,TGI,SF-295 CNS,> 100 µM
same,TGI,SN12C renal,> 100 µM
same,TGI,SNB-19 CNS,> 100 µM
same,TGI,UACC-62 melanoma,> 100 µM
same,TGI,SK-MEL-5 melanoma,> 100 µM
same,TGI,MDA-N,> 100 µM
same,TGI,HOP-92 NSCLC,> 100 µM
same,TGI,COLO 205 colon,> 100 µM
same,TGI,CAKI-1 renal,> 100 µM
same,TGI,A498 renal,> 100 µM
same,TGI,M14 melanoma,> 100 µM
same,TGI,HL-60(TB) leukemia,> 100 µM
same,TGI,NCI-H460 lung,> 100 µM
same,TGI,TK-10 renal,> 100 µM
same,TGI,IGROV1 ovarian,> 100 µM
same,TGI,UACC-257 melanoma,> 100 µM
same,TGI,RPMI-8226 leukemia,> 100 µM
same,TGI,HCT-116 colon,> 100 µM
same,TGI,T-47D breast,> 100 µM
same,TGI,MALME-3M melanoma,> 100 µM
same,TGI,K-562 leukemia,> 100 µM
same,TGI,NCI-H226 lung,> 100 µM
same,TGI,ACHN renal,> 100 µM
same,TGI,U251 CNS,> 100 µM
same,TGI,EKVX NSCLC,> 100 µM
same,TGI,MDA-MB-231 breast,> 100 µM
same,TGI,SNB-75 CNS,> 100 µM
same,TGI,OVCAR-8 ovarian,> 100 µM
same,TGI,HCC-2998 colon,> 100 µM
same,TGI,HS 578T breast,> 100 µM
same,TGI,NCI-H522 lung,> 100 µM
same,TGI,MCF7 breast,> 100 µM
same,TGI,NCI/ADR-RES ovarian,> 100 µM
CC(CCOc1ccc2ccc(=O)oc2c1)C1=CC(=O)C(C)(C)O1 (stereo not drawn),TGI,SR leukemia,3.42 µM
same,TGI,MDA-MB-435,11.5 µM
same,TGI,OVCAR-4 ovarian,22.5 µM
same,TGI,OVCAR-3 ovarian,11.6 µM
same,TGI,786-0 renal,7.69 µM
same,TGI,MOLT-4 leukemia,6.37 µM
same,TGI,SW-620 colon,4.93 µM
same,TGI,HOP-62 NSCLC,21.3 µM
same,TGI,SF-539 CNS,4.37 µM
same,TGI,SK-OV-3 ovarian,14.2 µM
same,TGI,HCT-15 colon,5.68 µM
same,TGI,HT29 colon,10.4 µM
same,TGI,KM12 colon,7.41 µM
same,TGI,LOX IMVI melanoma,> 100 µM
same,TGI,UO-31 renal,12.1 µM
same,TGI,SK-MEL-2 melanoma,26.3 µM
same,TGI,SK-MEL-28 melanoma,12.2 µM
same,TGI,PC-3 prostate,23.5 µM
same,TGI,OVCAR-5 ovarian,49.9 µM
same,TGI,BT-549 breast,11 µM
same,TGI,DU-145 prostate,12.5 µM
same,TGI,CCRF-CEM leukemia,3.18 µM
same,TGI,A549 NSCLC,10.6 µM
same,TGI,NCI-H23 lung,11.9 µM
same,TGI,SF-295 CNS,14.3 µM
same,TGI,SN12C renal,4.09 µM
same,TGI,SNB-19 CNS,18.2 µM
same,TGI,UACC-62 melanoma,14.9 µM
same,TGI,SK-MEL-5 melanoma,24 µM
same,TGI,MDA-N,16.4 µM
same,TGI,HOP-92 NSCLC,13.2 µM
same,TGI,COLO 205 colon,5.97 µM
same,TGI,CAKI-1 renal,8.75 µM
same,TGI,A498 renal,5.52 µM
same,TGI,M14 melanoma,26.5 µM
same,TGI,HL-60(TB) leukemia,5.31 µM
same,TGI,NCI-H460 lung,3.94 µM
same,TGI,TK-10 renal,13.3 µM
same,TGI,IGROV1 ovarian,14.8 µM
same,TGI,UACC-257 melanoma,20.6 µM
same,TGI,RPMI-8226 leukemia,7.31 µM
same,TGI,HCT-116 colon,10 µM
same,TGI,T-47D breast,6.06 µM
same,TGI,MALME-3M melanoma,10.8 µM
same,TGI,NCI-H226 lung,22.5 µM
same,TGI,ACHN renal,12.4 µM
same,TGI,U251 CNS,10.3 µM
same,TGI,SF-268 CNS,5.28 µM
same,TGI,EKVX NSCLC,15.1 µM
same,TGI,MDA-MB-231 breast,12.5 µM
same,TGI,OVCAR-8 ovarian,4.45 µM
same,TGI,HCC-2998 colon,5.71 µM
same,TGI,HS 578T breast,6.84 µM
same,TGI,NCI-H522 lung,3.11 µM
same,TGI,MCF7 breast,14.7 µM
same,TGI,NCI/ADR-RES ovarian,5.62 µM
Cc1c(C(=O)O)n2c(C)nnc2c2ccccc12,TGI,SR leukemia,> 100 µM
same,TGI,MDA-MB-435,> 100 µM
same,TGI,OVCAR-4 ovarian,> 100 µM
same,TGI,OVCAR-3 ovarian,> 100 µM
same,TGI,786-0 renal,> 100 µM
same,TGI,MOLT-4 leukemia,> 100 µM
same,TGI,SW-620 colon,> 100 µM
same,TGI,HOP-62 NSCLC,> 100 µM
same,TGI,SF-539 CNS,> 100 µM
same,TGI,SK-OV-3 ovarian,> 100 µM
same,TGI,HCT-15 colon,> 100 µM
same,TGI,HT29 colon,> 100 µM
same,TGI,KM12 colon,> 100 µM
same,TGI,LOX IMVI melanoma,> 100 µM
same,TGI,UO-31 renal,> 100 µM
same,TGI,SK-MEL-2 melanoma,> 100 µM
same,TGI,SK-MEL-28 melanoma,> 100 µM
same,TGI,PC-3 prostate,> 100 µM
same,TGI,OVCAR-5 ovarian,> 100 µM
same,TGI,BT-549 breast,> 100 µM
same,TGI,DU-145 prostate,> 100 µM
same,TGI,CCRF-CEM leukemia,> 100 µM
same,TGI,A549 NSCLC,> 100 µM
same,TGI,NCI-H23 lung,> 100 µM
same,TGI,SF-295 CNS,> 100 µM
same,TGI,SN12C renal,> 100 µM
same,TGI,UACC-62 melanoma,> 100 µM
same,TGI,SK-MEL-5 melanoma,> 100 µM
same,TGI,MDA-N,> 100 µM
same,TGI,HOP-92 NSCLC,> 100 µM
same,TGI,COLO 205 colon,> 100 µM
same,TGI,CAKI-1 renal,> 100 µM
same,TGI,A498 renal,> 100 µM
same,TGI,M14 melanoma,> 100 µM
same,TGI,NCI-H460 lung,> 100 µM
same,TGI,TK-10 renal,> 100 µM
same,TGI,IGROV1 ovarian,> 100 µM
same,TGI,UACC-257 melanoma,> 100 µM
same,TGI,HCT-116 colon,> 100 µM
same,TGI,T-47D breast,> 100 µM
same,TGI,K-562 leukemia,> 100 µM
same,TGI,NCI-H226 lung,> 100 µM
same,TGI,ACHN renal,> 100 µM
same,TGI,U251 CNS,> 100 µM
same,TGI,SF-268 CNS,> 100 µM
same,TGI,EKVX NSCLC,> 100 µM
same,TGI,MDA-MB-231 breast,> 100 µM
same,TGI,RXF 393 renal,> 100 µM
same,TGI,SNB-75 CNS,> 100 µM
same,TGI,OVCAR-8 ovarian,> 100 µM
same,TGI,HCC-2998 colon,> 100 µM
same,TGI,HS 578T breast,> 100 µM
same,TGI,NCI-H522 lung,> 100 µM
same,TGI,MCF7 breast,> 100 µM
same,TGI,NCI/ADR-RES ovarian,> 100 µM
